One data set has as its system eosinophil. The data set can be described thus: OVA-induced lung inflammation in Brown Norway rats, eosinophil influx into bronchoalveolar fluid. The data set is classed as in vivo. The note with it: Rattus norvegicus, ip, intraperitoneal injection, FIG. 2, read-out: ED50, inhibition of the influx of eosinophil. The protocol:
Rat model was very similar to the mouse models described earlier. Briefly, the lung inflammatory model described by Haczku et al. was used with minor modifications (Haczku A., et al., Immunology, (1996), 88, 247-251). Male Brown Norway rats, weighing 160-200 grams were sensitized with intraperitoneal injection of 1ml of a suspension containing ovalbumin (1 mg) and Al(OH)3 (100 mg) on days 1, 2 and 3. Three weeks later, the rats were treated with vehicle or drugs via intraperitoneal injections. One hour later, the rats were challenged with ovalbumin inhalation (1% solution, 10 mg/ml in sterilized saline) for 20 minutes in a 10 liter Plexiglas chamber which was connected to a DeVilbiss (Ultra-NEB®99) nebulizer with a carrier air flow of 1 liter/minute.
Results of dose response studies of 3-(4-pyridinylamino)-1H-indole-2-carboxylic acid on eosinophil influx into the bronchoalveolar fluid of ovalbumin sensitized and challenged Brown Norway rats are depicted as bar graphs in FIG. 2. Single dose of cyclosporin A (CsA) and dexamethasone (Dex) were also included as reference standards.

The next data set relates to IL-13. The data set can be described thus: In vivo ovalbumin (OVA) mouse model, BALF IL-13. The note with it: for IL-13 pg/ml (± SEM): 30 minutes before OVA challenge, BALF 24 hours, vehicle 120.2 ± 19.8. The arrangement: species or system mice. Here is the method:
This model is designed to determine the ability of a test article to modulate an antigen-induced pulmonary inflammatory cell accumulation in sensitized Balb/c mice from Charles River Laboratories. The mice are given a two week time period from arrival date prior to sensitizations.
On days 0, 7, 14, each animal is injected intraperitoneal (i.p.) with a 0.2 ml Ovalbumin Hydragel solution. Each animal receives 10 µg of Ovalbumin in 0.2 mL of Hydragel, aluminum hydroxide adsorptive gel containing 2% aluminum oxide. […] On day 22, BALF samples are collected from one group of animals and used for cytokine analysis. On day 24, BALF is obtained from a second group of animals and used for differential cell counts.
Test System: Female Babl/cJ mice (Jackson Laboratories), approximately 6-9 weeks old, each weighing approximately 20 to 25 grams, are divided into ten animals per group.
Sensitization Regimen: Mice are sensitized by an intraperitoneal injection of 10 µg ovalbumin (OVA) mixed in 4 mg aluminum hydroxide Al(OH)3 gel suspension in 0.2 ml sterile saline on Days 0, 7 and 14. This suspension is prepared one hour before intraperitoneal injection into each mouse. The animals are ready for OVA challenge on Day 21.
Antigen Challenge: Animals are exposed to aerosolized OVA on day 21 (5% w/v in sterile saline) for 20 minutes. The aerosol is generated by a PARI-Master nebulizer, the outlet of which is connected to a small Plexiglas® chamber containing the animals. Bronchoalveolar lavage is performed on Day 22.
Method of Study Performance: On day 24, 72 hours following aerosol OVA exposure, a separate group of animals are anesthetized with urethane (0.15 - 0.2 gm/kg) and the trachea is exposed and cannulated. […] Total cells and eosinophils are determined using a Technicon Hl and cytoslides, respectively. […]
Mice (12 animals per group) are sensitized with 0.2 ml of an AlOH3 hydrogel suspension (2% AlOH3) containing 50 µg/ml ovalbumin on days 0, 7 and 14. […] After the OVA challenge for 24 hours, the mice underwent bronchoalveolar lavage and IL-4 and IL-13 levels in the BALF are determined by ELISA. […]

Another data set has as its system Swiss 3T3 fibroblasts. The data set can be described thus: in vitro. The protocol: (§1) A third assay utilized in the present invention involves an in vitro cytotoxicity assay. This assay is used to further characterize the compounds in order to assess toxic activities of compounds on contact inhibited, non-dividing 3T3 fibroblasts. Other toxicity assays may be used.
(§2) Contact inhibited Swiss 3T3 fibroblasts are purchased from ATCC. The cells are maintained in 1640 RPMI supplemented with 10% fetal bovine serum (Gibco).
(§3) On day of assay, cells are detached from flasks by trypsinization, washed in medium and counted. 100 microliters of 2.5 x 10^4 cells per well are plated into Falcon brand 96 well tissue culture plates and cells incubated at 37°C in presence of 5% CO2 for 2 days or until confluent.
(§4) […] All compound dilutions are assayed in triplicate. […] Cells are returned to the incubator for 2 days.
(§5) After 2 day incubation, the 3T3 cells are assayed for viability using an MTS Assay Kit (Promega). Media is added to blank wells for background calculations. After 2 hours incubation in kit reagent, the optical density at 490 nm for each compound and control is determined by plate reader.
(§6) Results are expressed as percent cytotoxicity, i.e., (mean OD of compound wells - background OD)/ (mean OD of controls - background).
(§7) Note that starting concentration of CsA was 1 µM. […]

The next data set can be described thus: in vitro. The following applies: mouse, swiss 3t3 fibroblasts. Here is the method: as §1, §2, §3, §4, §5, §6, §7

Usually ED50 stands for the dose at which the effect has come halfway, by size or by number of responders. By viability is commonly meant a read-out of living cells in per cent, often relative to untreated cells. With `O=C(O)c1[nH]c2ccccc2c1Nc1ccncc1` [Example 28, 3-(4-Pyridinylamino)-1H-indole-2-carboxylic acid], the ED50 in the data set on eosinophil worked out at 10.1 mg/kg. For the same compound, the “IL-13 pg/ml (± SEM)” value with IL-13 (10 mg/kg intranasal) was 59.9 ± 12.7 pg/mL. Besides, the “IL-13 pg/ml (± SEM)” value in the data set with IL-13 (30 mg/kg intranasal) is 15.1 ± 7.1 pg/mL. The ED50 with IL-13 (Mus musculus, mice, intranasally, FIG. 1, read-out: ED50, allergen-induced IL-13 levels in the BALF) was about 10 mg/kg. In addition, the “toxic effects on the viability of quiescent 3T3 cells (in words)” value in the data set with Swiss 3T3 fibroblasts is “no toxic effects”. In addition, in “in vitro”, the viability at 48 h, 0.001 µM was determined as 124%; the viability at 48 h, 0.01 µM was 112%; the viability at 48 h, 0.03 µM was 111%; the viability at 48 h, 0.1 µM came to 111%. In addition, in the data set “in vitro”, the viability at 48 h, 3 µM stood at 110% and the viability at 48 h, 10 µM stood at 99.1%.
